Three compounds from PMC9256669, “Monomethyl auristatin antibody and peptide drug conjugates for trimodal cancer chemo-radio-immunotherapy” (Nature Communications, 2022) can be followed below.

The test system of one data set is B16 cells. The experiment in a line: NanoString PanCancer IO 360 gene expression and gene set analysis of MMAE-treated cells. The class given is cell-based, murine. How it is done:
RNA was isolated from cells or tumor tissues and comprehensive immune profiling was analyzed using the NanoString PanCancer IO 360 Panel and NanoString nCounter PanCancer Mouse Immune Profiling gene expression platforms. Gene set analysis with calculated global significance scores and directed significance scores were calculated for treated cells. The Advanced Analysis module of the nSolver software was used to analyze genes associated with listed immune cells in tumors and given a Z-score (n = 3 mice per group). Expression levels of GZMB were analyzed using real-time quantitative PCR. Reverse transcription was performed with the iScript cDNA synthesis kit (Biorad), using aliquots of total RNA extracted with RNeasy Plus Mini Kit (Qiagen). Gene-specific primers were GZMB-F […] and GZMB-R […]. Real-time PCR reactions were performed using the CFX Connect Real-Time PCR System (Biorad) and the amplifications were done using the iTaq Universal SYBR Green Supermix (Biorad). qPCR data were analyzed using the Bio-Rad CFX Maestro software. […]
a Undirected Directed Enrichment
Pathway # of Genes Enrichment Score Score
Gene Name Supplementary Figure 1: Gene
Mdm2 expression analysis of MMAE treated
Casp3 cells. B16 cells exposed to 5 nM MMAE for
Bcl2l1 72 hrs. RNA collected and analyzed using Cd68 murine NanoString PanCancer IO 360
Thbs1 Panel. a) Gene set analysis with calculated
Gls global significance scores and directed
Fstl3 significance scores. b) Heatmap depicting
Mfge8 2 differential gene expression of 36 genes
Brd3 1 control and MMAE treated cells. Source
Pias4 0 data are provided in Source Data file under
Fzd9 tab labeled Figure 1b.
Supplementary Data 1: Complete NanoString expression data of Figure 1b. Untreated control (n=2) and 5 nM MMAE treated (n=3) B16 cells were harvested at 72 hrs. RNA was collected and analyzed using NanoString PanCancer IO 360 Panel. Individual normalized RNA expression values shown for each gene. […]

The test system of a further data set is LL/2 cells. Kind of data set: Cell cycle analysis. The class given is cell-based, murine. How it is done: Cells were MMAE treated for 24 h, fixed in 70% ethanol, stained with FxCyclePI/RNase solution (Life Technologies), and then analyzed by FACS using FlowJo software. […]
0.9 b) Cell cycle analysis […]
Source data are provided in Source Data file.

Data set [1] deals with 4NQO-induced tongue tumors. The following applies: 10 nmoles ACPP-MMAE x 2 doses + whole tongue IR 5 Gy x 2 at week 20; tongues at week 22; vs untreated control. As for the experimental part: 4-Nitroquinoline N-oxide (4NQO, Sigma Aldrich-N8141) was dissolved in propylene glycol as a stock solution (4 mg/ml) and further diluted in drinking water to a final concentration of 50 μg/ml. […] Since the entire tongue was exposed to 4NQO, the whole tongue was delineated and given 5 Gy × 2 using PXI SmART irradiator with 225 kVp X-ray tube. IR was delivered as 2 parallel opposed fields. All mice were given a full oral cavity examination biweekly, and any observed pathological changes were documented. On week 22, animals were euthanized, and tissues and oral pharynx were fixed in PAXgene tissue FIX (Qiagen) at room temperature for 12 h. Tissues were then transferred to 70% ethanol and paraffin embedded. Tongue sections were H&E stained and histopathologically assessed for the number and size of carcinoma lesions per tongue by a qualified Pathologist (A.A.M.) who was blinded manner to treatment of each slide.

A further data set has as its system MC38 tumors. To be noted: status at the day printed in the same line, one line per mouse.
Data set [2] in a line: Blood clearance of Cy5-labeled CDX3379-MMAE (blood Cy5). The class given is in vivo, Nude mice. To be noted: immune-deficient and immune-competent mice, i.v. Cy5-labeled CDX3379-MMAE, Cy5 as surrogate marker. How it is done:
All animal work was done in compliance with the University of California San Diego Institutional Animal Use and Care Committee under protocol #S15290. Mice were housed in individually ventilated and micro-isolator cages supplied with acidified water and fed 5053 irradiated PicoLab Rodent Diet 20. Temperature for laboratory mice in housing was 18–23 °C with humidity 40–60%. Housing room is maintained on a 12-h light/dark cycle. […] For imaging, mice were anesthetized (1:1 mixture of 100 mg/ml of ketamine and 5 mg/ml of midazolam). Animals were imaged using a Maestro Small Animal Imager (CRI) with excitation filter of 607/36 and 633 nm long pass emission filter with dichroic filter tuned to 670 nm for Cy5 images only. Imaging was done both with skin on and after skin removal to decrease autofluorescence and scattering. Exposure time for Cy5 signal capture for tumor models was as follows: CAL27 for 800 ms, MOC1 for 200 ms and MOC2 for 1500 ms.

The test system of another data set is MOC1 tumors. Kind of data set: Subcutaneous tumor therapy, ADC monotherapy, mouse survival. In kind it is in vivo, C57BL/6 mice.
[3] abbreviates: 5 nM MMAE 72 hrs, gene set analysis.
Setting [4] is: 5 nM MMAE 72 hrs, samples MMAE_5, MMAE_1, MMAE_3.

Where “and” joins values, the source holds several entries; their conditions need not be identical. Identical values can stand only once. Like-named read-outs stand apart in the source and are kept apart here. Non-standard residues stand in square brackets, D forms with d. Residues, ends and D or L forms follow the SMILES beside them. *: point of attachment. Dolaproine = CO[C@@H]([C@@H]1CCCN1)[C@@H](C)C(=O)O; Dil = CC[C@H](C)[C@H](NC)[C@@H](CC(=O)O)OC; X1 = C[C@@H](N*)[C@@H](O)c1ccccc1; NMeV = CN[C@H](C(=O)O)C(C)C

Protocol for MC38 tumors: (§1) MOC1, B16, LL/2, and MC38 tumor cells were injected subcutaneously into the hindlimbs of 6-week-old female C57BL/6 albino mice in 100 µl of 1:1 Matrigel (BD) and PBS solution. Fractionated IR was delivered focally to the tumor-bearing hindlimbs (3 Gy to MC38 tumors and 5 Gy to LL/2 and B16 tumors) as indicated in figure legends using a PXI X-RAD 225 XL irradiator at maximal dose rate of 3 Gy/min with a beam-conditioning aluminum filter (Precision X-ray Irradiation). For RAG1 KO studies, 6-week-old female Rag1^tm1Mom mice were injected subcutaneously with tumor cells in their hindlimbs (Jackson Labs). For CD8 depletion studies, mice were i.p. injected with anti-CD8 (BioXCell #BE0117) at 10 mg/kg on days −6, −5 and −4 tumor cell implant and then weekly starting on day after tumor cells were injected or control antibody. […] Tumor volumes were measured and calculated using the formula as ½ * length * width^2. Mice were sacrificed when tumor volume reached >1500 mm^3, maximal tumor volume approved on our protocol for subcutaneous tumors.
Protocol for MOC1 tumors: as §1

For the compound `CC[C@H](C)[C@@H]([C@@H](CC(=O)N1CCC[C@H]1[C@H](OC)[C@@H](C)C(=O)N[C@H](C)[C@@H](O)c1ccccc1)OC)N(C)C(=O)[C@@H](NC(=O)[C@@H](NC)C(C)C)C(C)C` [MMAE, monomethyl auristatin E] (H-[NMeV]V[Dil][Dolaproine]-X1), in the data set on B16 cells (setting [3]), the “Directed Enrichment Score: Angiogenesis” value is listed as 1.8412, the “Directed Enrichment Score: Antigen Presentation” value came to 0.8121, the “Directed Enrichment Score: Apoptosis” value worked out at 0.9856 and the “Directed Enrichment Score: Autophagy” value is on record as -3.279. Besides, in the data set on B16 cells (setting [3]), the “Directed Enrichment Score: Cell Proliferation” value is given as -0.7774; the “Directed Enrichment Score: Costimulatory Signaling” value is recorded as -1.9366; the “Directed Enrichment Score: Cytokine and Chemokine Signaling” value was -1.4236; the “Directed Enrichment Score: Cytotoxicity” value came to 0.8779. In the data set with B16 cells (setting [3]), the “Directed Enrichment Score: DNA Damage Repair” value was -1.9501, the “Directed Enrichment Score: Epigenetic Regulation” value is listed as -1.7988, the “Directed Enrichment Score: Hedgehog Signaling” value is recorded as -2.2414 and the “Directed Enrichment Score: Hypoxia” value is -2.4508. In addition, in the data set on B16 cells (setting [3]), the “Directed Enrichment Score: Immune Cell Adhesion and Migration” value is -1.0133; the “Directed Enrichment Score: Interferon Signaling” value is reported as 0.9986; the “Directed Enrichment Score: JAK-STAT Signaling” value is reported as -1.657; the “Directed Enrichment Score: Lymphoid Compartment” value amounted to 0.8253. In addition, in the data set with B16 cells (setting [3]), the “Directed Enrichment Score: MAPK” value was -1.437; the “Directed Enrichment Score: Matrix Remodeling and Metastasis” value was determined as 1.1775; the “Directed Enrichment Score: Metabolic Stress” value is recorded as -2.3196; the “Directed Enrichment Score: Myeloid Compartment” value is on record as 0.1922. Further, in the data set on B16 cells (setting [3]), the “Directed Enrichment Score: NF-kappaB Signaling” value is listed as -0.7242, the “Directed Enrichment Score: Notch Signaling” value was -1.0152, the “Directed Enrichment Score: PI3K-Akt” value was -1.358 and the “Directed Enrichment Score: TGF-beta Signaling” value is -2.2971. Further, in the data set on B16 cells (setting [3]), the “Directed Enrichment Score: Wnt Signaling” value is on record as -2.3166, the “Undirected Enrichment Score: Angiogenesis” value amounted to 2.7066, the “Undirected Enrichment Score: Antigen Presentation” value is on record as 1.2276 and the “Undirected Enrichment Score: Apoptosis” value is on record as 2.3071. Further, in the data set with B16 cells (setting [3]), the “Undirected Enrichment Score: Autophagy” value worked out at 3.5536; the “Undirected Enrichment Score: Cell Proliferation” value was 2.1596; the “Undirected Enrichment Score: Costimulatory Signaling” value is given as 2.2732; the “Undirected Enrichment Score: Cytokine and Chemokine Signaling” value came out at 1.9551. In the data set on B16 cells (setting [3]), the “Undirected Enrichment Score: Cytotoxicity” value amounted to 1.637, the “Undirected Enrichment Score: DNA Damage Repair” value came to 2.4043, the “Undirected Enrichment Score: Epigenetic Regulation” value is on record as 2.4405 and the “Undirected Enrichment Score: Hedgehog Signaling” value came out at 3.1229. In the data set with B16 cells (setting [3]), the “Undirected Enrichment Score: Hypoxia” value came to 2.9454; the “Undirected Enrichment Score: Immune Cell Adhesion and Migration” value amounted to 1.8838; the “Undirected Enrichment Score: Interferon Signaling” value came to 1.5239; the “Undirected Enrichment Score: JAK-STAT Signaling” value is 2.5395. Also, in the data set on B16 cells (setting [3]), the “Undirected Enrichment Score: Lymphoid Compartment” value amounted to 1.1946; the “Undirected Enrichment Score: MAPK” value is given as 2.756; the “Undirected Enrichment Score: Matrix Remodeling and Metastasis” value is recorded as 2.3587; the “Undirected Enrichment Score: Metabolic Stress” value is 2.8728. For the same compound, in the data set with B16 cells (setting [3]), the “Undirected Enrichment Score: Myeloid Compartment” value came out at 1.2711, the “Undirected Enrichment Score: NF-kappaB Signaling” value is given as 1.6264, the “Undirected Enrichment Score: Notch Signaling” value amounted to 2.5438 and the “Undirected Enrichment Score: PI3K-Akt” value is 2.7297. Besides, in the data set with B16 cells (setting [3]), the “Undirected Enrichment Score: TGF-beta Signaling” value is reported as 3.339 and the “Undirected Enrichment Score: Wnt Signaling” value was found to be 3.1574. For the same compound, in the data set with B16 cells (setting [4]), the “NanoString scores: Bcl2l1” value was 0.4361 and 0.5098 and 0.454; the “NanoString scores: Cd68” value was 1.981 and 1.6572 and 1.978; the “NanoString scores: Mdm2” value is 0.6422 and 0.6786 and 0.4527. For the same compound, the “pathways downregulated by MMAE (gene set analysis)” value in the data set with B16 cells (downregulated pathways / all pathways) is 17/25. In the data set with LL/2 cells (MMAE 1 nM, replicate 1), this compound displayed a G2/M fraction of 0.15. This compound gave a G2/M fraction in the data set on LL/2 cells (MMAE 1 nM, replicate 2) of 0.12. Moreover, the G2/M fraction with LL/2 cells (MMAE 2 nM, replicate 1) came out at 0.13. This compound also gave a G2/M fraction with LL/2 cells (MMAE 2 nM, replicate 2) of 0.14. Further, the G2/M fraction with LL/2 cells (MMAE 5 nM, replicate 1) is 0.21. Further, the G2/M fraction with LL/2 cells (MMAE 5 nM, replicate 2) worked out at 0.23. This compound came in with a G2/M fraction in the data set on LL/2 cells (MMAE 10 nM, replicate 1) of 0.63. The G2/M fraction in the data set with LL/2 cells (MMAE 10 nM, replicate 2) was 0.53.

Consider “cyclo(RGD)fc-MC-HN-peg8-e9-oPLGC(Me)AG-r9-c-(MC-VC-PABC-MMAE)-CONH2 [ACPP-MMAE]”, for which the total tumor burden entry in data set [1] is recorded as “significantly decreased total tumor burden”. Moreover, the “Mouse survival, status” value with MC38 tumors (ACPP-MMAE + IR + αPD1) was 1 and 0; in the data set on MC38 tumors (ACPP-MMAE + IR), 1.

Turning to “CDX3379-MMAE: anti-HER3 antibody CDX3379 with 4 MMAE per antibody via MC-VC-PABC linker, labeled with Cy5”, the “time at which blood Cy5 signal returned to background fluorescence” value in data set [2] is at most 7 days. In the data set with MOC1 tumors, the “anti-tumor activity as measured by mouse survival” value is “modest anti-tumor activity”.
